According to publication doi:10.1101/2025.11.20.689572v1 (biorxiv, 2025):
pEC50, pKi: −log10 of the molar value.

How the values were obtained:
[1] = biological target: T1, H3 (Homo sapiens, UniProt Q9Y5N1); assay: competitive radioligand binding, HEK293 membranes
T1 construct: gene HRH3; full-length receptor; HEK293 cell membranes
Excerpt: competitive radioligand binding, HEK293 membranes on H3

[2] = biological target: T2, DRD4 (Homo sapiens, UniProt P21917); assay: cell-based; set-up: species or system HTLA; PRESTO-Tango beta-arrestin2 recruitment, luciferase luminescence, concentration-response; details: Assay=Tango; agonist mode
T2 sequence (P21917 1-419): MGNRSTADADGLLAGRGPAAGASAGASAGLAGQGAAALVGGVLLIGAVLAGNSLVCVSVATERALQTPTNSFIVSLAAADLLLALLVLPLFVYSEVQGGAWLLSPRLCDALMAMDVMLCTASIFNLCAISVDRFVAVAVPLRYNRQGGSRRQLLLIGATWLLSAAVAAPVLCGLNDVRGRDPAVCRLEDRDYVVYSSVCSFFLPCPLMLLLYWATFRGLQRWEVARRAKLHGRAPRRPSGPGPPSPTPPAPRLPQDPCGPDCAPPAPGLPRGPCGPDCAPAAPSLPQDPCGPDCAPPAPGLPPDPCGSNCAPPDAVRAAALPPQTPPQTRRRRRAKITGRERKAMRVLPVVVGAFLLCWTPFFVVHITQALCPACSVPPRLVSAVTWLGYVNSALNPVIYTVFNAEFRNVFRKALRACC

[3] = biological target: β2 (Homo sapiens, UniProt P07550); assay: biochemical; set-up: gene ADRB2; species or system HEK293; PDSP competitive radioligand binding, membranes of transfected HEK293 cells, filtration, Ki by Cheng-Prusoff
Chain of β2 (P07550 whole entry): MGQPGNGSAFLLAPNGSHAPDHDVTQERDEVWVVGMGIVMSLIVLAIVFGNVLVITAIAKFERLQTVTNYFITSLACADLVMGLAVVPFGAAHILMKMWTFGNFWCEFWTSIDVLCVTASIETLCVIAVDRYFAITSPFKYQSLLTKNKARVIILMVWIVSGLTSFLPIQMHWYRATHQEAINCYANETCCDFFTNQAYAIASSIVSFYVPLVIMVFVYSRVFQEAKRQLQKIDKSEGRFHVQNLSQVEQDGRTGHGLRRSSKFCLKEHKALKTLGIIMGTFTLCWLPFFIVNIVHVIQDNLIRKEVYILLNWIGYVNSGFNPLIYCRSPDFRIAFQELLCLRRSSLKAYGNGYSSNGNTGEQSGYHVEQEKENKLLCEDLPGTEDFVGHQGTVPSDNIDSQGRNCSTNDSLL
Procedure: (§1) Competitive radioligand binding assays were performed at the NIMH Psychoactive Drug Screening Program (PDSP) using membranes from transiently transfected HEK293 cells in 96-well format as described. Complete, target-specific protocols are available at the PDSP website (https://pdsp.unc.edu/pdspweb/?site=assays). Primary screenings were run at a single test concentration (10 µM) in quadruplicate. […] Secondary assays were conducted in triplicate using 12-point serial dilutions (0, 0.1, 0.3, 1, 3, 10, 30, 100, 300 nM; 1, 3, 10 µM). Assays were performed in a final volume of 125 µL per well in binding buffer, as detailed in the NIMH PDSP protocols (e.g., standard binding buffer: 50 mM Tris-HCl, pH 7.4, 10 mM MgCl2, 0.1 mM EDTA). Radioligand concentrations were chosen near the target-specific Kd. […] After 90 min incubation at room temperature, reactions were terminated by vacuum filtration onto 0.3% polyethyleneimine-pretreated UniFilter-96 GF/C Microplates using a FilterMate harvester, washed three times with ice-cold buffer (50 mM Tris HCl, pH 7.4), dried, treated with MicroScint-O [compound left out] scintillation cocktails, and counted on a MicroBeta counter. Equilibrium inhibition constants (Ki) were calculated from fitted IC50 values using the Cheng–Prusoff equation [14] with the assay-specific radioligand concentration and Kd. […] ND=not determined.

[4] = biological target: α1A (Homo sapiens, UniProt P35348); assay: biochemical; set-up: gene ADRA1A; species or system HEK293; PDSP competitive radioligand binding, membranes of transfected HEK293 cells, filtration, Ki by Cheng-Prusoff
Chain of α1A (P35348 whole entry): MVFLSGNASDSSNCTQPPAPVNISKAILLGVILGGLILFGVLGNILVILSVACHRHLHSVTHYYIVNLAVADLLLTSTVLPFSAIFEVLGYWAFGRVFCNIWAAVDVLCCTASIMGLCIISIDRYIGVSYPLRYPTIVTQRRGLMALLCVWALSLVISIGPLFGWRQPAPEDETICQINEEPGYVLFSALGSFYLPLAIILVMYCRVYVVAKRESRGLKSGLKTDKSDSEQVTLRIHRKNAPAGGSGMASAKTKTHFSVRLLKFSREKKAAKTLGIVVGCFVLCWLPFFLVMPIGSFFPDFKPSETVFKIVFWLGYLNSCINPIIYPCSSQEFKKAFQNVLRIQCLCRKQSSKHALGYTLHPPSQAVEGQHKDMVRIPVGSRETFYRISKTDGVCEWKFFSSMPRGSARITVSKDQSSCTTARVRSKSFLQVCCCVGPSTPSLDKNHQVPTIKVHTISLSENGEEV
Procedure: as §1

[5] = biological target: T3, CHRM1 (Homo sapiens, UniProt P11229); assay: cell-based; set-up: species or system HEK293; TRUPATH BRET2 G-protein dissociation; antagonist mode against agonist EC80; details: HEK293, read-out: N-Desmethyl Xanomeline, Assay=Gq; agonist mode, % of control agonist
T3 sequence (P11229 1-460): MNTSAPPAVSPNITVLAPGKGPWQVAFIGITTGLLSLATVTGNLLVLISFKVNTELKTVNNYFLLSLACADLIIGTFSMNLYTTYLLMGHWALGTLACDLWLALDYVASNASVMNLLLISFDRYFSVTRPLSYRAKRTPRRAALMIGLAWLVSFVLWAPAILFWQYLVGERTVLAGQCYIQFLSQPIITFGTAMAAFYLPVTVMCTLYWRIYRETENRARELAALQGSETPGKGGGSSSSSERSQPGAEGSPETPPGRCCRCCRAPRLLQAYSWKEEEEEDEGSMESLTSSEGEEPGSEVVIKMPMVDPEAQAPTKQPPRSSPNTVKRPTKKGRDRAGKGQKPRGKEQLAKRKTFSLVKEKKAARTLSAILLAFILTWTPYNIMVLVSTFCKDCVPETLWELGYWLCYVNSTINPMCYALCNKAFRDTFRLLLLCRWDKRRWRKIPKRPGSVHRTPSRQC

[6] = biological target: T4, HTR2C (Homo sapiens, UniProt P28335); assay: cell-based; set-up: species or system HEK293; TRUPATH BRET2 G-protein dissociation; antagonist mode against agonist EC80; details: HEK293, read-out: N-Desmethyl Xanomeline, Assay=Gq; agonist mode, % of control agonist
T4 sequence (P28335 1-458): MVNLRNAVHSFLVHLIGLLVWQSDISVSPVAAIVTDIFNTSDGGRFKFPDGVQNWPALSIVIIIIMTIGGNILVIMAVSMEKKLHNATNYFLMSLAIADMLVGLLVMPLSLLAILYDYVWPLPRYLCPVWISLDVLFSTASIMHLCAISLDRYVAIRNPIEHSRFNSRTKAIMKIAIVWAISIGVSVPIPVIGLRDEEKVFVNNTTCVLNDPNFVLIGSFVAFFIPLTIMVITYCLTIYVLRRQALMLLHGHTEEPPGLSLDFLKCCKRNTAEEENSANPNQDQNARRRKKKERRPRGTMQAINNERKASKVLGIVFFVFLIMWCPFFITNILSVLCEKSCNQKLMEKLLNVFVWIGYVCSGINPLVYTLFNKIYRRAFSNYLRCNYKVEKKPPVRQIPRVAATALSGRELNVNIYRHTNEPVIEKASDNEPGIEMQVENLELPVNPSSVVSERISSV

[7] = biological target: CHRM3 (Homo sapiens, UniProt P20309); assay: cell-based; set-up: species or system HTLA; PRESTO-Tango beta-arrestin2 recruitment, luciferase luminescence, concentration-response; details: Assay=Tango; agonist mode
Chain of CHRM3 (P20309 whole entry): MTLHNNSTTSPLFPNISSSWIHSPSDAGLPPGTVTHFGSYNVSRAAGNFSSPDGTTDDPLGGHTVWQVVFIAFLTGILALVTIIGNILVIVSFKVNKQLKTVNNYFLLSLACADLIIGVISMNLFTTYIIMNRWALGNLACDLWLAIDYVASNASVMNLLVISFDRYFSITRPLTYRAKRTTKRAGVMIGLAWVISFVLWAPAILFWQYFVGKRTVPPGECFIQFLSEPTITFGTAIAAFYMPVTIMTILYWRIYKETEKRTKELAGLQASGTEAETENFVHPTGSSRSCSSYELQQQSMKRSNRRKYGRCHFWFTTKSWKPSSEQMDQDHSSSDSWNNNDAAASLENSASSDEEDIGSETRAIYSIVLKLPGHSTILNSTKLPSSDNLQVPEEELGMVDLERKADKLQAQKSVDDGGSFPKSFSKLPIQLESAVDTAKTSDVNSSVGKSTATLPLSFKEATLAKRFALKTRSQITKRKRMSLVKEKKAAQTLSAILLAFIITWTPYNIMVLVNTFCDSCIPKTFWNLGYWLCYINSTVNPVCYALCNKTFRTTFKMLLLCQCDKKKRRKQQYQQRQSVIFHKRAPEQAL

[8] = biological target: SSTR4 (Homo sapiens, UniProt P31391); assay: cell-based; set-up: species or system HTLA; PRESTO-Tango beta-arrestin2 recruitment, luciferase luminescence, concentration-response; details: Assay=Tango; agonist mode
Chain of SSTR4 (P31391 whole entry): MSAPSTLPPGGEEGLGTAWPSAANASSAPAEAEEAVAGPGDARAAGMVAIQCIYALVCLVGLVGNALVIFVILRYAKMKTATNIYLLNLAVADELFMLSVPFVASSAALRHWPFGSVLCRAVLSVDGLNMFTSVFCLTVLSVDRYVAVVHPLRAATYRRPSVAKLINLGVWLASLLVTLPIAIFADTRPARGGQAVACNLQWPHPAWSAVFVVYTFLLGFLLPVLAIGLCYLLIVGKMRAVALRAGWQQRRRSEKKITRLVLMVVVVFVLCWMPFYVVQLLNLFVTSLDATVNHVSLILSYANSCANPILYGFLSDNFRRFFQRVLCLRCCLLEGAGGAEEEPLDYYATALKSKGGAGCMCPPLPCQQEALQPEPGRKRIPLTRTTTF

T1 sequence (Q9Y5N1 whole entry): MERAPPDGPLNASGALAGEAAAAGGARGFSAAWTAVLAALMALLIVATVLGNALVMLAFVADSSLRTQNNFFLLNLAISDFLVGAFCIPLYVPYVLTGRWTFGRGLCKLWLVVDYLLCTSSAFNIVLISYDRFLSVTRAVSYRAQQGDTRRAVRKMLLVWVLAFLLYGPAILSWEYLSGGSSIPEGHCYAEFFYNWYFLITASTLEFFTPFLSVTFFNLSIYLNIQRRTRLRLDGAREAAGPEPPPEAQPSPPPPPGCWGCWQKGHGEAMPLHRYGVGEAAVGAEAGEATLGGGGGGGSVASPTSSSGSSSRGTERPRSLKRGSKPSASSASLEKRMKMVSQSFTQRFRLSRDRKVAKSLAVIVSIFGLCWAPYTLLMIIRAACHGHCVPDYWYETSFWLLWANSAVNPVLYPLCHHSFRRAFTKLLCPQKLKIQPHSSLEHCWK

Structure (SMILES) | pKi [1] | pEC50 [2] | pKi [3] | pKi [4] | Emax [5] [%] | Emax [6] [%] | pEC50 [7] | pEC50 [8]
CCCCCCOc1nsnc1C1=CCCN(C)C1 [Xanomeline] | 6.10 | 5.32 | < 5.00 | < 5.00 |  |  |  | 
CCCCCCOc1nsnc1C1=CCCNC1 [N-desmethylxanomeline] |  |  |  |  | 95.9 | 106 | 6.98 | 6.03
